Results taken from patent publication US20060069132A1, “Azolecarboxamide herbicides” (priority 2004, published 2006).

Experiments:
Experiment in all cases: Test J Compounds 2 and 6 alone and in combination with other herbicides, foliage spray
Conditions in all cases: applied alone
pigweed (AMARE) = format: in vivo, Amaranthus retroflexus; set-up: key: 0 = no effect, 100 = complete control
Description: (§1) Colby's Equation was used to calculate the expected additive herbicidal effect of the mixtures of Compound 6 with Harmony® Extra (i.e. a 2:1 mixture by weight of thifensulfuron-methyl and tribenuron-methyl). Colby's Equation (Colby, S. R. “Calculating Synergistic and Antagonistic Responses of Herbicide Combinations,” Weeds, 15(1), pp 20-22 (1967)) calculates the expected additive effect of herbicidal mixtures, and for two active ingredients is of the form: Pa+b=Pa+Pb−(PaPb/100) wherein • Pa+b is the percentage effect of the mixture expected from additive contribution of the individual components, • Pa is the observed percentage effect of the first active ingredient at the same use rate as in the mixture, and • Pb is the observed percentage effect of the second active ingredient at the same use rate as in the mixture.
(§2) Seeds of test plants consisting of barnyardgrass (ECHCG; Echinochloa crus-galli (L.) Beauv.), blackgrass (ALOMY; Alopecurus myosuroides Huds.), Surinam grass (BRADC; Urochloa decumbens (Staph) R. D. Webster, previously named Brachiaria decumbens Stapf), cocklebur (XANST, Xanthium strumarium L.), corn (ZEAMD, Zea mays L. cv. ‘Pioneer 33G26’), large crabgrass (DIGSA, Digitaria sanguinalis (L.) Scop.), giant foxtail (SETFA, Setaria faberi Herrm.), lambsquarters (CHEAL, Chenopodium album L.), morningglory (IPOCO, Ipomoea coccinea L.), pigweed (AMARE, Amaranthus retroflexus L.), velvetleaf (ABUTH, Abutilon theophrasti Medik.) wheat (TRZAS, Triticum aestivum L. cv. ‘Recital’) and wild oat (AVEFA, Avena fatua L.) were planted in Redi-Earth® planting medium (Scotts Company, 14111 Scottslawn Road, Marysville, Ohio 43041) comprising spaghnum peat moss and vermiculite. Seeds of small-seeded species were planted about 1 cm deep; larger seeds were planted about 2.5 cm deep. Plants were grown in a greenhouse using supplemental lighting to maintain a photoperiod of about 14 hours; daytime and nighttime temperatures were about 24-30° C. and 22-25° C., respectively. Balanced fertilizer was applied through the watering system. The plants were grown for 7 to 11 days so that at time of treatment the plants ranged in height from 2 to 18 cm (1- to 4-leaf stage). Treatments consisted of Compounds 2 and 6 (technical material), atrazine (90DF), terbacil (Sinbar® 80DF), hexazinone (Velpar® 75WG), diuron (Karmex® 80WP) and paraquat (Gramoxone® Extra, 37%) alone and in combination, suspended or dissolved in an aqueous solvent comprising a nonionic surfactant and applied as a foliage spray using a volume of 541 L/ha. Each treatment was triply replicated. […] Treated plants and controls were maintained in the greenhouse and watered as needed with care to not wet the foliage for the first 24 hours after treatment. The effects on the plants 15 days after treatment were visually compared to untreated controls. Plant response ratings, listed in Table J as the means of the thee replicates, are based on a scale of 0 to 100 where 0 is no effect and 100 is complete control. Also listed in Table J are the expected effects for the mixtures calculated using Colby's Equation.

lambsquarters (CHEAL) = format: in vivo, Chenopodium album; set-up: key: % herbicidal effect (observed)
Description: as §1, §2

giant foxtail (SETFA) = format: in vivo, Setaria faberi; set-up: key: 0 = no effect, 100 = complete control
Description: as §2

large crabgrass (DIGSA) = format: in vivo, Digitaria sanguinalis; set-up: key to DIGSA Obsd.: 0 = no effect, 100 = complete control
Description: as §1, §2

Surinam grass (BRADC) = format: in vivo, Urochloa decumbens; set-up: key: 0 = no effect, 100 = complete control
Description: as §1, §2

velvetleaf (ABUTH) = format: in vivo, Abutilon theophrasti; set-up: key: 0 = no effect, 100 = complete control
Description: as §1, §2

wild oat (AVEFA) = format: in vivo, Avena fatua; set-up: key: 0 = no effect, 100 = complete control
Description: as §1, §2

barnyardgrass (ECHCG) = format: in vivo, Echinochloa crus-galli; set-up: key: percentage herbicidal effect (observed)
Description: as §1, §2

cocklebur (XANST) = format: in vivo, Xanthium strumarium; set-up: key: 0 = no effect, 100 = complete control
Description: as §2

morningglory (IPOCO) = format: in vivo, Ipomoea coccinea; set-up: key: 0 = no effect, 100 = complete control
Description: as §2

corn (ZEAMD) = format: in vivo, Zea mays; set-up: key: percentage herbicidal effect (observed)
Description: as §1, §2

blackgrass (ALOMY) = format: in vivo, Alopecurus myosuroides; set-up: key: 0 = no effect, 100 = complete control
Description: as §1, §2

wheat (TRZAS) = format: in vivo, Triticum aestivum; set-up: key: 0 = no effect, 100 = complete control
Description: as §1, §2

Structure (SMILES): CN(C)C(=O)Nc1ccc(Cl)c(Cl)c1 [diuron]
- AMARE Obsd. (pigweed (AMARE); 250 g a.i./ha): 95
- AMARE Obsd. (pigweed (AMARE); 500 g a.i./ha): 100
- CHEAL Obsd. (lambsquarters (CHEAL); 250 g a.i./ha): 98
- CHEAL Obsd. (lambsquarters (CHEAL); 500 g a.i./ha): 100
- SETFA Obsd. (giant foxtail (SETFA); 250 g a.i./ha): 35
- SETFA Obsd. (giant foxtail (SETFA); 500 g a.i./ha): 67
- DIGSA Obsd. (large crabgrass (DIGSA); 250 g a.i./ha): 68
- DIGSA Obsd. (large crabgrass (DIGSA); 500 g a.i./ha): 63
- BRADC Obsd. (Surinam grass (BRADC); 250 g a.i./ha): 68
- BRADC Obsd. (Surinam grass (BRADC); 500 g a.i./ha): 85
- ABUTH Obsd. (velvetleaf (ABUTH); 250 g a.i./ha): 77
- ABUTH Obsd. (velvetleaf (ABUTH); 500 g a.i./ha): 100
- AVEFA Obsd. (wild oat (AVEFA); 250 g a.i./ha): 15
- AVEFA Obsd. (wild oat (AVEFA); 500 g a.i./ha): 47
- ECHCG Obsd. (barnyardgrass (ECHCG); 250 g a.i./ha): 62
- ECHCG Obsd. (barnyardgrass (ECHCG); 500 g a.i./ha): 98
- XANST Obsd. (cocklebur (XANST); 250 g a.i./ha): 93
- XANST Obsd. (cocklebur (XANST); 500 g a.i./ha): 100
- IPOCO Obsd. (morningglory (IPOCO); 250 g a.i./ha): 92
- IPOCO Obsd. (morningglory (IPOCO); 500 g a.i./ha): 100
- ZEAMD Obsd. (corn (ZEAMD); 250 g a.i./ha): 20
- ZEAMD Obsd. (corn (ZEAMD); 500 g a.i./ha): 28
- ALOMY Obsd. (blackgrass (ALOMY); 250 g a.i./ha): 25
- ALOMY Obsd. (blackgrass (ALOMY); 500 g a.i./ha): 43
- TRZAS Obsd. (wheat (TRZAS); 250 g a.i./ha): 30
- TRZAS Obsd. (wheat (TRZAS); 500 g a.i./ha): 40

Structure (SMILES): CN(C)c1nc(=O)n(C2CCCCC2)c(=O)n1C [hexazinone]
- AMARE Obsd. (pigweed (AMARE); 100 g a.i./ha): 88
- AMARE Obsd. (pigweed (AMARE); 200 g a.i./ha): 80
- CHEAL Obsd. (lambsquarters (CHEAL); 100 g a.i./ha): 78
- CHEAL Obsd. (lambsquarters (CHEAL); 200 g a.i./ha): 87
- SETFA Obsd. (giant foxtail (SETFA); 100 g a.i./ha): 28
- SETFA Obsd. (giant foxtail (SETFA); 200 g a.i./ha): 45
- DIGSA Obsd. (large crabgrass (DIGSA); 100 g a.i./ha): 38
- DIGSA Obsd. (large crabgrass (DIGSA); 200 g a.i./ha): 53
- BRADC Obsd. (Surinam grass (BRADC); 100 g a.i./ha): 62
- BRADC Obsd. (Surinam grass (BRADC); 200 g a.i./ha): 70
- ABUTH Obsd. (velvetleaf (ABUTH); 100 g a.i./ha): 82
- ABUTH Obsd. (velvetleaf (ABUTH); 200 g a.i./ha): 77
- AVEFA Obsd. (wild oat (AVEFA); 100 g a.i./ha): 53
- AVEFA Obsd. (wild oat (AVEFA); 200 g a.i./ha): 62
- ECHCG Obsd. (barnyardgrass (ECHCG); 100 g a.i./ha): 15
- ECHCG Obsd. (barnyardgrass (ECHCG); 200 g a.i./ha): 53
- XANST Obsd. (cocklebur (XANST); 100 g a.i./ha): 100
- XANST Obsd. (cocklebur (XANST); 200 g a.i./ha): 100
- IPOCO Obsd. (morningglory (IPOCO); 100 g a.i./ha): 92
- IPOCO Obsd. (morningglory (IPOCO); 200 g a.i./ha): 100
- ZEAMD Obsd. (corn (ZEAMD); 100 g a.i./ha): 45
- ZEAMD Obsd. (corn (ZEAMD); 200 g a.i./ha): 53
- ALOMY Obsd. (blackgrass (ALOMY); 100 g a.i./ha): 40
- ALOMY Obsd. (blackgrass (ALOMY); 200 g a.i./ha): 78
- TRZAS Obsd. (wheat (TRZAS); 100 g a.i./ha): 35
- TRZAS Obsd. (wheat (TRZAS); 200 g a.i./ha): 60

Structure (SMILES): CCNc1nc(Cl)nc(NC(C)C)n1 [atrazine]
- AMARE Obsd. (pigweed (AMARE); 125 g a.i./ha): 38
- AMARE Obsd. (pigweed (AMARE); 250 g a.i./ha): 75
- CHEAL Obsd. (lambsquarters (CHEAL); 125 g a.i./ha): 67
- CHEAL Obsd. (lambsquarters (CHEAL); 250 g a.i./ha): 95
- SETFA Obsd. (giant foxtail (SETFA); 125 g a.i./ha): 0
- SETFA Obsd. (giant foxtail (SETFA); 250 g a.i./ha): 18
- DIGSA Obsd. (large crabgrass (DIGSA); 125 g a.i./ha): 5
- DIGSA Obsd. (large crabgrass (DIGSA); 250 g a.i./ha): 5
- BRADC Obsd. (Surinam grass (BRADC); 125 g a.i./ha): 15
- BRADC Obsd. (Surinam grass (BRADC); 250 g a.i./ha): 5
- ABUTH Obsd. (velvetleaf (ABUTH); 125 g a.i./ha): 15
- ABUTH Obsd. (velvetleaf (ABUTH); 250 g a.i./ha): 25
- AVEFA Obsd. (wild oat (AVEFA); 125 g a.i./ha): 13
- AVEFA Obsd. (wild oat (AVEFA); 250 g a.i./ha): 28
- ECHCG Obsd. (barnyardgrass (ECHCG); 125 g a.i./ha): 20
- ECHCG Obsd. (barnyardgrass (ECHCG); 250 g a.i./ha): 23
- XANST Obsd. (cocklebur (XANST); 125 g a.i./ha): 45
- XANST Obsd. (cocklebur (XANST); 250 g a.i./ha): 72
- IPOCO Obsd. (morningglory (IPOCO); 125 g a.i./ha): 52
- IPOCO Obsd. (morningglory (IPOCO); 250 g a.i./ha): 75
- ZEAMD Obsd. (corn (ZEAMD); 125 g a.i./ha): 3
- ZEAMD Obsd. (corn (ZEAMD); 250 g a.i./ha): 12
- ALOMY Obsd. (blackgrass (ALOMY); 125 g a.i./ha): 3
- ALOMY Obsd. (blackgrass (ALOMY); 250 g a.i./ha): 28
- TRZAS Obsd. (wheat (TRZAS); 125 g a.i./ha): 3
- TRZAS Obsd. (wheat (TRZAS); 250 g a.i./ha): 8
